For test [1], the system named is Cryphonectria parasitica. Briefly: Fungicidal activity against Cryphonectria parasitica assessed as inhibition of fungal growth at 100 ug after 7 days. To be noted: 168 h, read-out: DIZ. The format is functional.
The subject of test [2] is Cryphonectria parasitica. The test is described as follows: Fungicidal activity against Cryphonectria parasitica assessed as inhibition of fungal growth at 12.5 ug after 7 days. Format: functional. To be noted: 168 h, read-out: DIZ.
Test [3] deals with Cryphonectria parasitica. The test is described as follows: Fungicidal activity against Cryphonectria parasitica assessed as inhibition of fungal growth at 25 ug after 7 days. To be noted: 168 h, read-out: DIZ. Format: functional.
Test [4] deals with Cryphonectria parasitica. The test is described as follows: Fungicidal activity against Cryphonectria parasitica assessed as inhibition of fungal growth at 50 ug after 7 days. Format: functional. To be noted: 168 h, read-out: DIZ.
In another test the test system is Laetisaria fuciformis. Briefly: Fungicidal activity against Laetisaria fuciformis assessed as inhibition of fungal growth at 10 to 1000 mg/L. Format: functional, organism-based.
For a further test, the system named is Rhizoctonia solani. Briefly: Fungicidal activity against Rhizoctonia solani assessed as inhibition of fungal growth at 10 to 1000 mg/L. The format is functional, organism-based.
The test system of a further test is Magnaporthiopsis poae. Briefly: Fungicidal activity against Magnaporthe poae assessed as inhibition of fungal growth at 10 to 1000 mg/L. Format: functional, organism-based.

`COC(=O)c1c[nH]c2ccccc12`: in the test on Cryphonectria parasitica [1], the zone of inhibition at 100 µg/disc turned out to be 11 mm. For the same compound, the zone of inhibition at 12.5 µg/disc in the test on Cryphonectria parasitica [2] is 4 mm. For the same compound, the zone of inhibition at 25 µg/disc in the test on Cryphonectria parasitica [3] is 6 mm. In addition, the zone of inhibition at 50 µg/disc in the test with Cryphonectria parasitica [4] stood at 8 mm.

Regarding `O=Cc1c[nH]c2ccccc12` [3-FORMYLINDOLE], the zone of inhibition at 100 µg/disc in the test with Cryphonectria parasitica [1] turned out to be 15 mm. Also, in the test with Cryphonectria parasitica [2], the zone of inhibition at 12.5 µg/disc came to 7 mm. In addition, the zone of inhibition at 25 µg/disc with Cryphonectria parasitica [3] turned out to be 10 mm. In addition, the zone of inhibition at 50 µg/disc in the test with Cryphonectria parasitica [4] was 13 mm.

`CC(C)=CCC[C@@](C)(O)[C@H]1CC[C@](C)(O)[C@@H]1C` [CYCLONERODIOL]: in the test on Cryphonectria parasitica [1], the zone of inhibition at 100 µg/disc amounted to 13 mm. In addition, the zone of inhibition at 12.5 µg/disc with Cryphonectria parasitica [2] is 0 mm. For the same compound, the zone of inhibition at 25 µg/disc in the test on Cryphonectria parasitica [3] was 0 mm. For the same compound, in the test on Cryphonectria parasitica [4], the zone of inhibition at 50 µg/disc amounted to 0 mm.

In the case of `CC(=O)NC(C)=O` [DIACETAMIDE], the zone of inhibition at 100 µg/disc in the test with Cryphonectria parasitica [1] stood at 14 mm. For the same compound, in the test with Cryphonectria parasitica [2], the zone of inhibition at 12.5 µg/disc came out at 3 mm. Also, the zone of inhibition at 25 µg/disc with Cryphonectria parasitica [3] was 7 mm. In the test on Cryphonectria parasitica [4], the zone of inhibition at 50 µg/disc amounted to 10 mm.

Consider `O=C(O)Cc1c[nH]c2ccccc12` [INDOLE-3-ACETIC ACID], for which the “growth inhibition (GI)” value in the test on Laetisaria fuciformis, with Rhizoctonia solani and in the test on Magnaporthiopsis poae was “Dose-dependent effect” throughout. Besides, the zone of inhibition at 100 µg/disc with Cryphonectria parasitica [1] is 21 mm. For the same compound, the zone of inhibition at 12.5 µg/disc in the test on Cryphonectria parasitica [2] was found to be 12 mm. Moreover, in the test with Cryphonectria parasitica [3], the zone of inhibition at 25 µg/disc is 14 mm. In addition, in the test on Cryphonectria parasitica [4], the zone of inhibition at 50 µg/disc was 16 mm.

On to `OCCc1c[nH]c2ccccc12` [TRYPTOPHOL], for which the “growth inhibition (GI)” value in the test on Laetisaria fuciformis, in the test on Rhizoctonia solani and in the test on Magnaporthiopsis poae was “Dose-dependent effect” in each case. Moreover, in the test on Cryphonectria parasitica [1], the zone of inhibition at 100 µg/disc is 14 mm. Besides, the zone of inhibition at 12.5 µg/disc in the test with Cryphonectria parasitica [2] is 7 mm. Besides, in the test with Cryphonectria parasitica [3], the zone of inhibition at 25 µg/disc came to 9 mm. In the test with Cryphonectria parasitica [4], the zone of inhibition at 50 µg/disc came out at 11 mm.
